Results reported in article PMC9617636 (Antiviral Research, 2022).
Like-named read-outs stand apart in the source and are kept apart here.

Tests used:
[1] = tested on: SARS-CoV-2; experiment: Antiviral plaque assay in Vero-E6 cells; format: cell-based
[2] = tested on: B.1.1.7 SARS-CoV-2; experiment: Antiviral assay in Calu3 cells; format: cell-based
[3] = tested on: SARS-CoV-2 viral RNA; format: cell-based
[4] = tested on: SARS-CoV-2 nucleocapsid; format: cell-based
[5] = tested on: −1 PRF signal of SARS-CoV-2; format: cell-based
[6] = in vitro; conditions: African green monkey
[7] = in vitro; conditions: human
[8] = tested on: Vero-E6 cells; conditions: listed as of SARS-CoV-2 B.1.1.7 (Alpha)
[9] = tested on: Calu3 cells
[10] = tested on: HCoV-229e; experiment: microbe, parasite or virus in culture; format: cell-based; conditions: Human coronavirus 229E
[11] = tested on: Influenza A virus (H1N1); experiment: Antiviral activity against Influenza A virus; format: cell-based, Influenza virus A/Netherlands/602/2009
[12] = tested on: SARS-CoV-2; format: cell-based
[13] = tested on: Mucilair tissues; format: cell-based, human; conditions: MTS assay at 96hpi, 30 μg/tissue
[14] = tested on: SARS-CoV-2 GFP; format: cell-based
[15] = tested on: A549 cells; format: cell-based; conditions: 600 μM
[16] = in vitro; conditions: human; remark: listed apart in the source
[17] = in vitro; conditions: dog
[18] = Severe acute respiratory syndrome coronavirus 2, Vero C1008, read-out: EC50 (95% CI)
[19] = Severe acute respiratory syndrome coronavirus 2, Vero C1008, read-out: EC90 (95% CI), SARS-CoV-2 B.1.1.7 (Alpha), Vero-E6
[20] = Severe acute respiratory syndrome coronavirus 2, Calu-3, read-out: EC50 (95% CI)
[21] = CC50, row of SARS-CoV-2 B.1.1.7 (Alpha)

For `CCNCC1CCN(c2c(F)cc3c(=O)c(C(=O)O)cn(CC)c3c2F)C1` (stereo not shown) [Merafloxacin], the EC50 [1, 18] was 23.7 µM, the EC90 [1, 19] was 116 µM and the EC50 [2, 20] was 21.8 µM. The “viral RNA replication” value [3] was “inhibition of viral RNA replication”, the “viral protein production (nucleocapsid over alpha tubulin)” value [4] was “decrease in viral protein production” and the “−1 PRF efficiency” value [5] was “reduction in the −1 PRF efficiency”. It also gave a CC50 [6, 21] of over 100 µM and a CC50 [7] of over 100 µM.
Sotrovimab showed an EC50 ([1]; read-out: EC50 (95% CI)) of 0.00013 µM, an EC90 ([1]; read-out: EC90 (95% CI), SARS-CoV-2 B.1.1.7 (Alpha), Vero-E6) of 0.0042 µM and an EC50 ([2]; read-out: EC50 (95% CI)) of 0.0041 µM. For the same molecule, the CC50 [8] was over 0.68 µM and the CC50 [9] was over 0.68 µM.
For `CN[C@@H]1[C@@H](O)[C@@H](O[C@@H]2[C@@H](O)[C@H](O[C@H]3O[C@H]([C@@H](C)O)[C@@H](O)[C@H](O)[C@H]3N)[C@@H](N)C[C@H]2N)OC[C@]1(C)O` [Geneticin], the EC50 [1, 18] was 47.2 µM, the EC50 ([1]; Severe acute respiratory syndrome coronavirus 2, Vero C1008, read-out: EC50 (95% CI), SARS-CoV-2 B.1.160, Vero-E6) was 31.6 µM and the EC50 ([1]; Severe acute respiratory syndrome coronavirus 2, Vero C1008, read-out: EC50 (95% CI), SARS-CoV-2 B.1.177, Vero-E6) was 102 µM. The EC50 ([1]; Severe acute respiratory syndrome coronavirus 2, Vero C1008, read-out: EC50 (95% CI), SARS-CoV-2 B.1.258, Vero-E6) was 42.4 µM, the EC50 ([1]; Severe acute respiratory syndrome coronavirus 2, Vero C1008, read-out: EC50 (95% CI), SARS-CoV-2 B.1.617.2 (Delta), Vero-E6) was 32.8 µM and the EC50 ([1]; Severe acute respiratory syndrome coronavirus 2, Vero C1008, read-out: EC50 (95% CI), SARS-CoV-2 BA.1 (Omicron), Vero-E6) was 25.7 µM. The EC90 [1, 19] was 245 µM, the EC90 ([1]; Severe acute respiratory syndrome coronavirus 2, Vero C1008, read-out: EC90 (95% CI), SARS-CoV-2 B.1.160, Vero-E6) was 150 µM and the EC90 ([1]; Severe acute respiratory syndrome coronavirus 2, Vero C1008, read-out: EC90 (95% CI), SARS-CoV-2 B.1.177, Vero-E6) was 407 µM. The EC90 ([1]; Severe acute respiratory syndrome coronavirus 2, Vero C1008, read-out: EC90 (95% CI), SARS-CoV-2 B.1.258, Vero-E6) was 163 µM, the EC90 ([1]; Severe acute respiratory syndrome coronavirus 2, Vero C1008, read-out: EC90 (95% CI), SARS-CoV-2 B.1.351 (Beta), Vero-E6) was 542 µM and the EC90 ([1]; Severe acute respiratory syndrome coronavirus 2, Vero C1008, read-out: EC90 (95% CI), SARS-CoV-2 B.1.617.2 (Delta), Vero-E6) was 201 µM. The EC90 ([1]; Severe acute respiratory syndrome coronavirus 2, Vero C1008, read-out: EC90 (95% CI), SARS-CoV-2 BA.1 (Omicron), Vero-E6) was 155 µM, the EC50 ([10]; Huh-7, read-out: EC50 (95% CI)) was 7.21 µM and the EC90 ([10]; Huh-7, read-out: EC90 (95% CI)) was 23.9 µM. For the same molecule, the EC50 ([11]; read-out: EC50 (95% CI)) was over 600 µM, the “antiviral activity against Influenza A virus (H1N1)” value ([11]; unrelated virus) was “lack of activity” and the EC50 [2, 20] was 164 µM. For the same molecule, the “protection from viral infection (apical viral RNA and plaque titre)” value [12] was “significant protection from viral infections”, the “viability of the tissues” value [13] was “without a decrease in viability” and the “viral RNA replication” value [3] was “inhibition of viral RNA replication”. The “viral protein production (nucleocapsid over alpha tubulin)” value [4] was “decrease in viral protein production”, the “GFP intensity in the infected cells” value [14] was “significantly reduced” and the “number of infected (GFP positive) cells” value [14] was “marked reduction in the number of infected cells”. For the same molecule, the “−1 PRF efficiency” value [5] was “reduction in the −1 PRF efficiency”, the “protein synthesis in the cell” value [15] was “not impaired” and the CC50 [6, 21] was 3950 µM. For the same molecule, the CC50 ([6]; CC50, row of SARS-CoV-2 B.1.351 (Beta)) was 3950 µM, the CC50 ([6]; CC50, row of SARS-CoV-2 B.1.617.2 (Delta)) was 3950 µM and the CC50 ([6]; CC50, row of SARS-CoV-2 BA.1 (Omicron)) was 934 µM. It also gave a CC50 [16] of 684 µM, a CC50 [17] of 5840 µM and a CC50 [7] of over 600 µM.
